Counter-ions that a name gives are not always drawn. Like-named read-outs stand apart in the source and are kept apart here.
Assays:
[1] = test system: Adriamycin-Resistant Human Ovary Cancer Cells (A2780/ADM); assay: Test on Vindesine Resistance Using Adriamycin-Resistant Human Ovary Cancer Cells (A2780/ADM)
Experimental: (§1) A2780/ADM cells were diluted with an RPMI 1640 medium (430-1800 EB, produced by GIBCO) containing 10% fetal bovine serum (200-6140AG, produced by GIBCO) and 1% glutamine (320-5030 PG, produced by GIBCO) to a concentration of 30000 cells/ml. One milliliter of the cell suspension was inoculated to each well of a 24-well microtiter plate and cultured under conditions of 37°C, 5% CO₂, and a humidity of 95% or higher for 1 day. A mixture of 0.1 ml of a Vindesine solution diluted serially with the above medium and 0.1 ml of the above medium was added to each well as a control group. […] The cells in each well were further cultured under the same conditions as above for additional 3 days, and the number of the cells was counted with a Coulter counter to obtain a 50% growth inhibitory concentration (IC₅₀) of the control groups and the test groups.

[2] = test system: Vincristine-Resistant Mouse Leukemia Cells (P388/VCR); assay: Test on Vincristine Resistance Using Vincristine-Resistant Mouse Leukemia Cells (P388/VCR); assay type: in vivo; conditions: for T/C: P388/VCR-implanted CDF₁ mice
Experimental: Vincristine-resistant P388 cells (P388/VCR) were suspended in physiological saline, and 5x10⁶ cells/0.2 ml were intraperitoneally implanted to grouped 6-week-old CDF₁ strain male mice, each group consisting of 5 mice. A prescribed amount of Vincristine alone or a mixture of Vincristine and a test compound (I) was intraperitoneally administered for consecutive 5 days from the next day of the implantation. The effect of overcoming the drug resistance was evaluated in terms of T/C, a percentage of the number of survival days of a test group to the number of survival days of a control group.
Vincristine (VCR) used was Vincristine Sulfate, produced by Shionogi & Co., Ltd., dissolved in physiological saline. Compound (I) was suspended in a 0.3% aqueous solution of carboxymethyl cellulose and administered in an amount of 0.1 ml per 10 g-b.w. […]

[3] = test system: Adriamycin-Resistant Human Ovary Cancer Cells (A2780/ADM); conditions: 72 h
Experimental: as §1

[4] = A2780, 72 h, read-out: IC₅₀ of Test Compound Alone, A2780/ADM cells, test compound alone, 3 days culture, cell count

Row | IC50 [1, 4] | Compound | also measured
1 | 0.42 µM | CCCOC(=O)C1(O)CC2OC1(C)n1c3ccccc3c3c4c(c5c6ccccc6n2c5c31)C(=O)NC4 (stereo not drawn) [Compound I-12] | –
2 | 2.8 µM | CCCCCCOC(=O)C1(O)CC2OC1(C)n1c3ccccc3c3c4c(c5c6ccccc6n2c5c31)C(=O)NC4=O (stereo not drawn) [Compound I-15] | –
3 | 0.26 µM | CNC1CC2OC(C)(C1OC)n1c3ccccc3c3c4c(c5c6ccccc6n2c5c31)C(=O)N(C)C4 (stereo not drawn) [Compound I-1] | –
4 | 9.1 µM | COC1C(N(C)C(=O)CN(C)C)CC2OC1(C)n1c3ccccc3c3c4c(c5c6ccccc6n2c5c31)C(=O)NC4O (stereo not drawn) [Compound I-5] | –
5 | 1.1 µM | CCCCOC(=O)C1(O)CC2OC1(C)n1c3ccccc3c3c4c(c5c6ccccc6n2c5c31)C(=O)NC4 (stereo not drawn) [Compound I-13] | –

Continued, molecule first:

Row | Compound | IC50 [1, 4] | also measured
6 | COC1C(N(C)C(=O)N2CCN(C)CC2)CC2OC1(C)n1c3ccccc3c3c4c(c5c6ccccc6n2c5c31)C(=O)NC4O (stereo not drawn) [Compound I-3] | 10 µM | –
7 | COC(=O)C1(OC(C)=O)CC2OC1(C)n1c3ccccc3c3c4c(c5c6ccccc6n2c5c31)C(=O)N(C(C)=O)C4 (stereo not drawn) [Compound I-17] | > 100 µM | –
8 | CCCCCCOC(=O)C1(O)CC2OC1(C)n1c3ccccc3c3c4c(c5c6ccccc6n2c5c31)C(=O)NC4 (stereo not drawn) [Compound I-14] | 4.8 µM | –
9 | CC[C@]1(O)C[C@H]2CN(CCc3c([nH]c4ccccc34)[C@@](C(=O)OC)(c3cc4c(cc3OC)N(C=O)[C@H]3[C@@](O)(C(=O)OC)[C@H](OC(C)=O)[C@]5(CC)C=CCN6CC[C@]43[C@@H]65)C2)C1 [VCR, Vincristine Sulfate, reference compound] | – | T/C ([2]; VCR alone 0.1 mg/kg i.p. for 5 consecutive days): 112%; T/C ([2]; VCR alone 0.2 mg/kg i.p. for 5 consecutive days): 116%; T/C ([2]; VCR alone 0.4 mg/kg i.p. for 5 consecutive days): 121%
10 | CC[C@]1(O)C[C@@H]2CN(CCc3c([nH]c4ccccc34)[C@@](C(=O)OC)(c3cc4c(cc3OC)N(C)[C@H]3[C@@](O)(C(N)=O)[C@H](O)[C@]5(CC)C=CCN6CC[C@]43[C@@H]65)C2)C1 [Vindesine, reference compound] | – | IC50 ([1]; A2780, read-out: IC₅₀ of Vindesine, A2780/ADM cells, control group: Vindesine alone, no test compound): 1.3 µM
11 | COC1C(N(C)CCOC(=O)N2CCN(C)CC2)CC2OC1(C)n1c3ccccc3c3c4c(c5c6ccccc6n2c5c31)C(=O)NC4O (stereo not drawn) [Compound I-7] | 9.5 µM | –
12 | COC1C(N(C)C(=O)OCc2ccccc2)CC2OC1(C)n1c3ccccc3c3c4c(c5c6ccccc6n2c5c31)C(=O)N(C)C4 (stereo not drawn) [Compound I-2] | > 100 µM | T/C ([2]; Compound (I-2) alone 22.2 mg/kg i.p. for 5 consecutive days, survival days vs control): 102%; effect of overcoming the drug resistance ([2]; P388/VCR-implanted mice, combined with Vincristine, statement in words): excellent effects to overcome the drug resistance; T/C ([2]; VCR 0.1 mg/kg + Compound (I-2) 22.2 mg/kg i.p. for 5 consecutive days): 152%
13 | COC1C(N(C)CCO)CC2OC1(C)n1c3ccccc3c3c4c(c5c6ccccc6n2c5c31)C(=O)NC4O (single isomer, unassigned) [Compound I-8] | – | IC50 [3]: 17.2 µM
14 | COC1C(N(C)C(=O)CN2CCOCC2)CC2OC1(C)n1c3ccccc3c3c4c(c5c6ccccc6n2c5c31)C(=O)NC4O (stereo not drawn) [Compound I-4] | 7 µM | –
15 | CCOC(=O)C1(O)CC2OC1(C)n1c3ccccc3c3c4c(c5c6ccccc6n2c5c31)C(=O)NC4 (stereo not drawn) [Compound I-11] | 0.16 µM | IC50 ([1]; A2780, read-out: IC₅₀ of Vindesine, A2780/ADM cells, Vindesine with test compound at 0.05 µM): 0.77 µM
16 | COC1C(N(C)C(=O)CN2CCN(C)CC2)CC2OC1(C)n1c3ccccc3c3c4c(c5c6ccccc6n2c5c31)C(=O)NC4O (stereo not drawn) [Compound I-6] | 12.5 µM | –
17 | CCOC(=O)N(C)C1CC2OC(C)(C1OC)n1c3ccccc3c3c4c(c5c6ccccc6n2c5c31)C(=O)N(C)C4 (stereo not drawn) [Compound I-10] | – | IC50 ([1]; A2780, 72 h, read-out: IC₅₀ of Test Compound Alone): > 10 µM
18 | COC1C(N(C)CCO)CC2OC1(C)n1c3ccccc3c3c4c(c5c6ccccc6n2c5c31)C(=O)NC4O (single isomer, unassigned) [Compound I-9] | 9.2 µM | –
